Source: publication PMC8312610, “F4, a collagen XIX-derived peptide, inhibits tumor angiogenesis through αvβ3 and α5β1 integrin interaction” (Cell Adhesion & Migration, 2021)
“Also recorded” adds a separate entry of the source. Positions of bridges follow the written chain, without caps; N, C: chain ends. No end group written: not given here.

Tests used:
[1] = tested on: inhibitory nerve terminal assembly; set-up: method as in PMID 26975851; conditions: in vitro; ref [27]; cited from earlier work
melanoma cell = conditions: earlier work of the authors; ref [22],[23]; cited from earlier work
Excerpt: (§1) The aim of the present work was to study the anti-angiogenic properties of F4 peptide. […] By affinity chromatography, we identified αvβ3 and α5β1 integrins as potential receptors for F4 peptide on endothelial cell surface. Using solid phase assays, ... || Type XIX collagen, that belongs to the FACIT family (Fibril-Associated Collagens with Interrupted Triple helices), is a minor collagen associated to the basement membrane zone.

mouse melanoma model = conditions: mouse melanoma model; ref [22],[23]; cited from earlier work
Excerpt: as §1

[2] = tested on: HUVEC (Human Umbilical Vein Endothelial Cells); test: HUVEC proliferation (crystal violet); format: cell-based; conditions: 40 μM, 48 h, 5,000 HUVEC per well in ECGM, 560 nm, means ± SD (n = 16), N = 3
Method: Figure 1. […] 5,000 HUVEC were seeded in a 96 well plate and incubated with or without 40 μM NC1(XIX) or F4 for 48 hours. After washing, cells were fixed with glutaraldehyde and stained with crystal violet. Dye was eluted with 10% acetic acid and absorbance was read at 560 nm. The values are the means ± SD (n = 16). The experiment was repeated three times (N = 3) and the results presented in the figure correspond to the more representative one
(§2) Human Umbilical Vein Endothelial Cells (HUVEC) (Ref C-12253) were purchased from Promocell. They were grown in Endothelial Cell Growth Medium (ECGM) (Promocell, Ref C-22110: Basal medium supplemented with 0.02 mL/mL Fetal Calf Serum, 0.004 mL/mL Endothelial Cell Growth Supplement, 0.1 ng/mL Epidermal Growth Factor (recombinant human), 1 ng/mL Basic Fibroblast Growth Factor (recombinant human), 90 μg/mL Heparin, 1 μg/mL Hydrocortisone) at +37°C in a humid atmosphere containing 5% CO2. PromoCell Detach Kit was used for the detachment of HUVEC according to the manufacturer’s protocols (Promocell, ref C-41200).
For cell proliferation measurement, 5,000 HUVEC were seeded in 96-well plates and cultivated in ECGM with or without 40 μM NC1(XIX) or F4 at +37°C in a humid atmosphere containing 5% CO2. […] Dye was eluted with 10% (v/v) acetic acid and absorbance was read at 560 nm.

α5β1 integrin [3] = tested on: α5β1 integrin; set-up: method as in PMID 26975851; conditions: NC1(XIX) covalently coupled to agarose beads, cortical protein extract; ref [27]; cited from earlier work
[4] = tested on: Sprague Dawley rat aortic rings; test: Ex vivo rat aortic ring assay (endothelial cell outgrowth); format: cell-based; conditions: 40 μM, 14 days, Opti-MEM with 30 ng/mL VEGF, Matrigel, mean ± SD (n = 5), N = 2; p < 0.01 NC1(XIX), p < 0.001 F4
Method: Figure 3. NC1(XIX) and F4 inhibit endothelial cell ex vivo migration. Rat aortic rings were embedded in Matrigel in 24 well-plate and then incubated with or without 40 μM NC1(XIX) or F4 for 14 days. Micro-vessel outgrowth was observed under an inverted microscope after 14 days and photographed (a). Cell outgrowth from the tissue explant was measured using a home-made macro based on ImageJ analysis software. The results are presented as mean ± SD (n = 5 replicates) (b). The experiment was repeated twice (N = 2)
The ex vivo rat aortic ring assay was adapted from Baker et al.. Thoracic aorta was dissected from Sprague Dawley rat and stored in Opti-MEM (ThermoFisher, ref 31985062) supplemented with 1% penicillin/streptomycin in a Petri dish. Aorta was then cut into 0.5 mm rings that were incubated in Opti-MEM overnight at +37°C in a Petri dish. Matrigel (7 mg/mL) was loaded in 24-well plate and allowed to polymerize at +37°C for 30 min. The rings were carefully transferred from the Petri dish onto the Matrigel coated wells and were completely embedded by addition of Matrigel. The plate was incubated at +37°C for 30 min. Opti-MEM supplemented with 30 ng/mL VEGF with or without 40 μM NC1(XIX) or F4 was added. Plate was incubated at +37°C in a humid atmosphere containing 5% CO2 for 14 days. The supplemented culture medium was changed every 3 days. Rings were imaged under an inverted light microscope at 14 days. Quantitative evaluation of the angiogenic sprouting was determined by measuring the number of endothelial cell outgrowth from the primary tissue explant using a homemade macro based on ImageJ analysis software. The first step consisted in the semi-automatic selection of aortic ring shape at day 0 by manual threshold allowing the design of a top hat filter to obtain a relevant mask of this structure. The mask was then substracted from day 14 image to keep only outgrowing cells. The second step consisted in a manual threshold and the use of ‘Analyze Particules’ tool involving size criteria. The total cell number of cell outgrowing from the ring was determined.

HUVEC = test: Capillary (pseudo-)tube formation on Matrigel; format: cell-based, human; conditions: 40 µM
Method: Figure 2. NC1(XIX) and F4 inhibit endothelial cell in vitro pseudotube formation. 50,000 HUVEC were seeded in Matrigel coated well of a 48 well-plate and incubated with or without 40 μM NC1(XIX) or F4. Pseudotube formation was observed and photographed under an inverted microscope after 8 hours (a). The number of segments, of nodes and the total length of pseudotubes were quantified by the ImageJ software, using the Angiogenesis Analyzer tool (b). The values are the means ± SD (n = 8 replicates). *** p < 0.001). The experiment was repeated three times (N = 3)
as §2
The ability of HUVEC to form pseudo-tubes was investigated on Matrigel (Corning, ref 356237). Matrigel was loaded into 48-well plate and allowed to polymerize at +37°C for 2 h. 50,000 HUVEC suspended in Basal media supplemented with 0.004 mL/mL Endothelial Cell Growth Supplement, 90 μg/mL Heparin, 1 μg/mL Hydrocortisone with or without 40 μM NC1(XIX) or F4 were seeded into each well. Plates were incubated at +37°C in a humid atmosphere containing 5% CO2, 95% for 8 h. The formation of the capillary network was then imaged under an inverted light microscope. Quantitative evaluation of the capillary network was performed using the angiogenesis analyzer tool of ImageJ analysis software. The number of nodes, of segments and the total length of the capillary network were determined.

α5β1 integrin [5] = test: Solid phase assay, direct binding to α5β1; set-up: species or system human; conditions: coated integrin 26 × 10^−7 to 0.1 × 10^−7 mol/L; biotinylated-F4 26 × 10^−5 mol/L, or 20.8 × 10^−4 to 0.16 × 10^−4 mol/L; 90 min, room temperature, streptavidin-peroxidase/TMB, 450 nm; N = 2
Excerpt: (§3) Figure 5. F4 directly binds to αvβ3 and α5β1 integrins. Direct interaction between αvβ3 or α5β1 integrin and F4 was studied using solid phase assays as described in the material and method section. The F4 peptide was biotinylated to allow its detection using the streptavidin-peroxidase complex. Different conditions were used. (a-b) The amounts of coated αvβ3 (a) or α5β1 integrin (b) were increased while biotinylated F4 peptide was kept constant. (c-d) The concentration of biotinylated F4 peptide was increased while coated amounts of αvβ3 (c) or α5β1 (d) integrins were kept constant. (e-f) Competitive assays were performed using increasing concentrations of F4 peptide while biotinylated-F4 peptide and αvβ3 (e) or α5β1 (f) integrins were kept constant. […]
(§4) Wells of a 96-well plate were coated with α5β1 (ref. 3230-A5-050, R&D systems) and/or αvβ3 integrin (ref. 3050-AV-050, R&D systems) at different concentrations ranging from 26 × 10^−7 mol/L to 0.1 × 10^−7 mol/L (100 μL per well in PBS). […] The intensity of the yellow coloration was measured at 450 nm with an LB940 spectrophotometer (Berthold Technologies).
(§5) The optimum integrin amount for the coating was determined using the above protocol and the optimum ligand concentration was sought using different dilutions of the biotinylated-F4 peptide ranging from 20.8 × 10^−4 to 0.16 × 10^−4 mol/L.

αvβ3 integrin = test: Solid phase assay, direct binding to αvβ3; set-up: species or system human; conditions: coated integrin 26 × 10^−7 to 0.1 × 10^−7 mol/L; biotinylated-F4 26 × 10^−5 mol/L, or 20.8 × 10^−4 to 0.16 × 10^−4 mol/L; 90 min, room temperature, streptavidin-peroxidase/TMB, 450 nm; N = 2
Excerpt: as §3, §4, §5

[6] = 8 h, 50,000 HUVEC on Matrigel, ImageJ Angiogenesis Analyzer, p < 0.001 for NC1(XIX) and F4, n = 8, N = 3

| Substance | inhibitory nerve terminal assembly [1] | melanoma cell migration and invasion (melanoma cell) | in vivo tumor growth and angiogenesis (mouse melanoma model) | effect on HUVEC proliferation [2] | purification of α5β1 integrin on immobilised peptide (α5β1 integrin [3]) | change of cell outgrowth from aortic ring vs control [4] [%] | decrease of the number of nodes vs control (HUVEC; [6]) [%] | decrease of the number of segments vs control (HUVEC; [6]) [%] | decrease of the total length of capillary tubes vs control (HUVEC; [6]) [%] | inhibition of pseudo-tube formation (HUVEC; 8 h, HUVEC on Matrigel, compared to control) | binding to α5β1, concentration dependence (α5β1 integrin [5]) | binding to αvβ3, concentration dependence (αvβ3 integrin) |
| --- | --- | --- | --- | --- | --- | --- | --- | --- | --- | --- | --- | --- |
| NPEDCLYPVSHAHQRTGGN [NC1(XIX), NC1(XIX) domain at the C-terminus of the α1(XIX) collagen chain] | involved in triggering inhibitory nerve terminal assembly in vitro | inhibits melanoma cell migration and invasion | strongly inhibits in vivo tumor growth as well as angiogenesis | not significantly modified; also recorded: does not affect endothelial cell proliferation | able to purify α5β1 integrin from cortical protein extract | −57 | 57 | 33 | 31 | strongly inhibited pseudo-tube formation |  |  |
| biotinylated-F4: The F4 peptide was biotinylated to allow its detection using the streptavidin-peroxidase complex (CNPEDCLYPVSHAHQR; disulfide 1-6 (inferred); also: biotinylated (position not given here)) |  |  |  |  |  |  |  |  |  |  | dependent both on the receptor (Figure 5(a,b)) and on ligand (Figure 5(c,d)) concentrations | dependent both on the receptor (Figure 5(a,b)) and on ligand (Figure 5(c,d)) concentrations |
